Measurements taken from US7875618B2, “Substituted imidazo[1,5-a]quinoxalines useful as inhibitors of phosphodiesterase 10 for the treatment of neurological and other disorders” (Wyeth, priority 2007, dated 2011).

Target: T1, human recombinant PDE10A (Homo sapiens, UniProt Q9Y233)
T1 construct: made in house; host or cells: SF21 insect cells (baculovirus)
Assay: Inhibition of human recombinant PDE10A ([3H]-cAMP SPA, Method B)
Type: biochemical
Conditions: read-out: PDE10 inhibition IC50 [nM] PDE10A human
Procedure: The gene was than inserted into a baculovirus vector, ligated with the baculovirus DNA. The enzyme-protein was expressed in SF21-cells. The enzyme was isolated from these cells by harvesting the cells by a centrifugation at 200 g to collect the cells. The cells were resuspended in 50 mM Tris-HCl/5 mM MgCl2 buffer (pH=7.4) and lysed by a sonication of the cells. The cytosolic PDE10A was obtained by a centrifugation at 48000 g for 1 h in the supernatant and stored at −70° C. PDE10 activity was determined in a one step procedure in microtiterplates. […] Nonspecific activity was tested without the enzyme. The reaction was initiated by addition of the substrate solution and was carried out at 37° C. for 30 minutes. Enzymatic activity was stopped by addition of 25 μl YSi-SPA-beads (Amersham-Pharmacia). One hour later the mixture was measured in a liquid scintillation counter for microtiterplates (Microbeta Trilux). To pipette the incubation mixture a robot Biomek (Fa. Beckman) is used. […] For determination of IC50 values the Hill-plot, 2-parameter-model, was used.

T1 sequence (Q9Y233 1-779 isoform Q9Y233-1): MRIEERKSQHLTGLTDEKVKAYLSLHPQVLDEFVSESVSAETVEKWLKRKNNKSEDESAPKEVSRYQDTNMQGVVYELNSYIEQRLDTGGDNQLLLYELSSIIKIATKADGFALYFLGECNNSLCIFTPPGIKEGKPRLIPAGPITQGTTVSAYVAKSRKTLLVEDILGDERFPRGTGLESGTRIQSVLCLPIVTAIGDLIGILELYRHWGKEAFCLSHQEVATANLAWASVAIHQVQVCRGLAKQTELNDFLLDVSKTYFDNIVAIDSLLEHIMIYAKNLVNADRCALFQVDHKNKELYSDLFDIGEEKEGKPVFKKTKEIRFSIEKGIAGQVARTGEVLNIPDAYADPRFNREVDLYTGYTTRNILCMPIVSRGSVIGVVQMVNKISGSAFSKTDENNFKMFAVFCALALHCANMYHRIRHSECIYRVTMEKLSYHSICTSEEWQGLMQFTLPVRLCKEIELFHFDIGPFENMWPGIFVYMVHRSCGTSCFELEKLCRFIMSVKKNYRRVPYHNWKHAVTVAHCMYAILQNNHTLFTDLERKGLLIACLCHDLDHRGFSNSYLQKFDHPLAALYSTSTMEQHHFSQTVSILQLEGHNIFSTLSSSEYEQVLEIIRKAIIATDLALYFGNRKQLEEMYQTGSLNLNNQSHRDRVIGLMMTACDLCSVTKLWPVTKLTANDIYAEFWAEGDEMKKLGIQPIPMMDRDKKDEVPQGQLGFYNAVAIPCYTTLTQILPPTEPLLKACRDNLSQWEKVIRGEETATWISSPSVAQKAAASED

Row | SMILES | IC50
1 | COc1cc(F)c2nc(C)c3c(C)nc(-c4ccccc4C)n3c2c1 [Example 31, 6-Fluoro-8-methoxy-3,4-dimethyl-1-(2-methylphenyl)-imidazo[1,5-a]quinoxaline] | ≤ 10 nM
2 | COc1cc(F)c2nc(C)c3c(C)nc(-c4cccc(F)c4C)n3c2c1 [Example 32, 6-Fluoro-1-(3-fluoro-2-methylphenyl)-8-methoxy-3,4-dimethylimidazo[1,5-a]quinoxaline] | ≤ 10 nM
3 | COc1cc(F)c2nc(C)c3c(C)nc(-c4ccc(F)cc4Cl)n3c2c1 [Example 33, 1-(2-Chloro-4-fluorophenyl)-6-fluoro-8-methoxy-3,4-dimethylimidazo[1,5-a]quinoxaline] | ≤ 10 nM
4 | Cc1nc(F)ccc1-c1nc(C)c2c(C)nc3ccc(Cl)cc3n12 [Example 62, 8-chloro-1-(6-fluoro-2-methylpyridin-3-yl)-3,4-dimethylimidazo[1,5-a]quinoxaline] | 10 to 100 nM
5 | Cc1ccccc1-c1nc(C)c2c(C)nc3ccc(Cl)cc3n12 [Example 63, 8-chloro-3,4-dimethyl-1-(2-methylphenyl)imidazo[1,5-a]quinoxaline] | ≤ 10 nM
6 | Cc1nc(-c2cccc(C(N)=O)c2)n2c1c(C)nc1ccc(Cl)cc12 [Example 64, 3-(8-chloro-3,4-dimethylimidazo[1,5-a]quinoxalin-1-yl)benzamide] | ≤ 10 nM
7 | Cc1nc(-c2ccccc2Cl)n2c1c(C)nc1ccc(Cl)cc12 [Example 67, 8-chloro-1-(2-chlorophenyl)-3,4-dimethylimidazo[1,5-a]quinoxaline] | ≤ 10 nM
8 | Cc1nc(-c2ccc(F)c(C(N)=O)c2)n2c1c(C)nc1ccc(Cl)cc12 [Example 68, 5-(8-chloro-3,4-dimethylimidazo[1,5-a]quinoxalin-1-yl)-2-fluorobenzamide] | 10 to 100 nM
9 | Cc1nn(C)c(C)c1-c1nc(C)c2c(C)nc3ccc(Cl)cc3n12 [Example 69, 8-chloro-3,4-dimethyl-1-(1,3,5-trimethyl-1H-pyrazol-4-yl)imidazo[1,5-a]quinoxaline] | 10 to 100 nM
10 | Cc1ccccc1-c1nc(C)c2c(C)nc3c(F)cc(F)cc3n12 [Example 70, 6,8-difluoro-3,4-dimethyl-1-(2-methylphenyl)imidazo[1,5-a]quinoxaline] | ≤ 10 nM
11 | COc1nc(C)c2c(C)nc3c(F)cc(F)cc3n12 [Example 73, 6,8-difluoro-1-methoxy-3,4-dimethylimidazo[1,5-a]quinoxaline] | ≥ 100 nM
12 | COc1cc(F)c2nc(C)c3c(C)nc(-c4ccccc4Cl)n3c2c1 [Example 77, 1-(2-chlorophenyl)-6-fluoro-8-methoxy-3,4-dimethylimidazo[1,5-a]quinoxaline] | ≤ 10 nM
13 | COc1cc(F)c2nc(C)c3c(C)nc(-c4ccc(F)c(C(N)=O)c4)n3c2c1 [Example 78, 2-fluoro-5-(6-fluoro-8-methoxy-3,4-dimethylimidazo[1,5-a]quinoxalin-1-yl)benzamide] | ≤ 10 nM
14 | COc1ccncc1-c1nc(C)c2c(C)nc3c(OC)cc(F)cc3n12 [Example 80, 8-fluoro-6-methoxy-1-(4-methoxypyridin-3-yl)-3,4-dimethylimidazo[1,5-a]quinoxaline] | ≤ 10 nM
15 | COc1cc(F)cc2c1nc(C)c1c(C)nc(-c3ccccc3Cl)n12 [Example 85, 1-(2-chlorophenyl)-8-fluoro-6-methoxy-3,4-dimethylimidazo[1,5-a]quinoxaline] | ≤ 10 nM
16 | Cc1ccsc1-c1nc(C)c2c(C)nc3ccccc3n12 [Example 99, 3,4-dimethyl-1-(3-methyl-2-thienyl)imidazo[1,5-a]quinoxaline] | 10 to 100 nM
17 | Cc1noc(C)c1-c1nc(C)c2c(C)nc3ccccc3n12 [Example 100, 1-(3,5-dimethylisoxazol-4-yl)-3,4-dimethylimidazo[1,5-a]quinoxaline] | ≥ 100 nM
18 | Cc1nc(-c2cccc(C(N)=O)c2)n2c1c(C)nc1ccccc12 [Example 101, 3-(3,4-dimethylimidazo[1,5-a]quinoxalin-1-yl)benzamide] | 10 to 100 nM
19 | Cc1nc(-c2cc(C(N)=O)ccc2F)n2c1c(C)nc1ccccc12 [Example 102, 3-(3,4-dimethylimidazo[1,5-a]quinoxalin-1-yl)-4-fluorobenzamide] | 10 to 100 nM
20 | Cc1nc(F)ccc1-c1nc(C)c2c(C)nc3ccccc3n12 [Example 103, 1-(6-fluoro-2-methylpyridin-3-yl)-3,4-dimethylimidazo[1,5-a]quinoxaline] | 10 to 100 nM
21 | COc1ccc2nc(C)c3c(C)nc(-c4ccc(F)cc4Cl)n3c2c1 [Example 105, 1-(2-chloro-4-fluorophenyl)-8-methoxy-3,4-dimethylimidazo[1,5-a]quinoxaline] | ≤ 10 nM

Row | SMILES | IC50
22 | COc1ccc2nc(C)c3c(C)nc(-c4ccc(Cl)cc4C(F)(F)F)n3c2c1 [Example 106, 1-[4-chloro-2-(trifluoromethyl)phenyl]-8-methoxy-3,4-dimethylimidazo[1,5-a]quinoxaline] | 10 to 100 nM
23 | COc1ccc2nc(C)c3c(C)nc(-c4cc(Cl)ccc4C)n3c2c1 [Example 107, 1-(5-chloro-2-methylphenyl)-8-methoxy-3,4-dimethylimidazo[1,5-a]quinoxaline] | ≤ 10 nM
24 | COc1ccc2nc(C)c3c(C)nc(-c4ccc(F)cc4C)n3c2c1 [Example 108, 1-(4-fluoro-2-methylphenyl)-8-methoxy-3,4-dimethylimidazo[1,5-a]quinoxaline] | 10 to 100 nM
25 | COc1ccc2nc(C)c3c(C)nc(-c4cccc(F)c4C)n3c2c1 [Example 109, 1-(3-fluoro-2-methylphenyl)-8-methoxy-3,4-dimethylimidazo[1,5-a]quinoxaline] | ≤ 10 nM
26 | COc1ccc2nc(C)c3c(C)nc(-c4cnccc4OC)n3c2c1 [Example 110, 8-methoxy-1-(4-methoxypyridin-3-yl)-3,4-dimethylimidazo[1,5-a]quinoxaline] | 10 to 100 nM
27 | COc1ccc2nc(C)c3c(C)nc(-c4cccc(C(N)=O)c4)n3c2c1 [Example 112, 3-(8-methoxy-3,4-dimethylimidazo[1,5-a]quinoxalin-1-yl)benzamide] | ≤ 10 nM
28 | COc1ccc2nc(C)c3c(C)nc(-c4ccc(F)nc4C)n3c2c1 [Example 113, 1-(6-fluoro-2-methylpyridin-3-yl)-8-methoxy-3,4-dimethylimidazo[1,5-a]quinoxaline] | 10 to 100 nM
29 | COc1ccc2nc(C)c3c(C)nc(-c4cc(C(N)=O)ccc4F)n3c2c1 [Example 114, 4-fluoro-3-(8-methoxy-3,4-dimethylimidazo[1,5-a]quinoxalin-1-yl)benzamide] | ≤ 10 nM
30 | COc1ccc2nc(C)c3c(C)nc(-c4ccccc4C)n3c2c1 [Example 115, 8-methoxy-3,4-dimethyl-1-(2-methylphenyl)imidazo[1,5-a]quinoxaline] | ≤ 10 nM
31 | Cc1nc(F)ccc1-c1nc(C)c2c(C)nc3ccc(OC(F)(F)F)cc3n12 [Example 117, 1-(6-fluoro-2-methylpyridin-3-yl)-3,4-dimethyl-8-(trifluoromethoxy)imidazo[1,5-a]quinoxaline] | 10 to 100 nM
32 | Cc1ccccc1-c1nc(C)c2c(C)nc3ccc(OC(F)(F)F)cc3n12 [Example 118, 3,4-dimethyl-1-(2-methylphenyl)-8-(trifluoromethoxy)imidazo[1,5-a]quinoxaline] | ≤ 10 nM
33 | Cc1nc(-c2cccc(C(N)=O)c2)n2c1c(C)nc1ccc(OC(F)(F)F)cc12 [Example 120, 3-[3,4-dimethyl-8-(trifluoromethoxy)imidazo[1,5-a]quinoxalin-1-yl]benzamide] | ≤ 10 nM
34 | COc1ccncc1-c1nc(C)c2c(C)nc3ccc(C(F)(F)F)cc3n12 [Example 123, 1-(4-methoxypyridin-3-yl)-3,4-dimethyl-8-(trifluoromethyl)imidazo[1,5-a]quinoxaline] | 10 to 100 nM
35 | Cc1ccccc1-c1nc(C)c2c(C)nc3ccc(C(F)(F)F)cc3n12 [Example 125, 3,4-dimethyl-1-(2-methylphenyl)-8-(trifluoromethyl)imidazo[1,5-a]quinoxaline] | 10 to 100 nM
36 | COc1cc2nc(C)c3c(C)nc(-c4ccccc4C)n3c2cc1Cl [Example 126, 8-chloro-7-methoxy-3,4-dimethyl-1-(2-methylphenyl)imidazo[1,5-a]quinoxaline] | ≤ 10 nM
37 | COc1cc2nc(C)c3c(C)nc(-c4ccncc4C)n3c2cc1Cl [Example 127, 8-chloro-7-methoxy-3,4-dimethyl-1-(3-methylpyridin-4-yl)imidazo[1,5-a]quinoxaline] | ≤ 10 nM
38 | COc1cc2nc(C)c3c(C)nc(-c4cnccc4C)n3c2cc1Cl [Example 128, 8-chloro-7-methoxy-3,4-dimethyl-1-(4-methylpyridin-3-yl)imidazo[1,5-a]quinoxaline] | 10 to 100 nM
39 | COc1cc2nc(C)c3c(C)nc(-c4ccccc4Cl)n3c2cc1Cl [Example 129, 8-chloro-1-(2-chlorophenyl)-7-methoxy-3,4-dimethylimidazo[1,5-a]quinoxaline] | ≤ 10 nM
40 | COc1cc2nc(C)c3c(C)nc(-c4cccnc4C)n3c2cc1Cl [Example 130, 8-chloro-7-methoxy-3,4-dimethyl-1-(2-methylpyridin-3-yl)imidazo[1,5-a]quinoxaline] | ≤ 10 nM
41 | COc1cc2nc(C)c3c(C)nc(-c4c(C)nn(C)c4C)n3c2cc1Cl [Example 131, 8-chloro-7-methoxy-3,4-dimethyl-1-(1,3,5-trimethyl-1H-pyrazol-4-yl)imidazo[1,5-a]quinoxaline] | ≤ 10 nM
42 | CCOc1cc2nc(C)c3c(C)nc(-c4ccccc4C)n3c2cc1Cl [Example 132, 8-Chloro-7-ethoxy-3,4-dimethyl-1-(2-methylphenyl)imidazo[1,5-a]quinoxaline] | 10 to 100 nM
